Here are results for seven compounds from US7625875B2 (priority 2002, dated 2009).

One data set addresses human DNA polymerase α (Homo sapiens, UniProt P09884). The data set is described as follows: Inhibition of human DNA polymerase α. It is filed as biochemical.
The target of the next data set is human DNA polymerase β (Homo sapiens, UniProt P06746). The data set is described as follows: Inhibition of human DNA polymerase β. In kind it is biochemical.
The next data set addresses T1, human DNA polymerase γ (Homo sapiens, UniProt P54098).
T1 sequence (P54098 1-1239): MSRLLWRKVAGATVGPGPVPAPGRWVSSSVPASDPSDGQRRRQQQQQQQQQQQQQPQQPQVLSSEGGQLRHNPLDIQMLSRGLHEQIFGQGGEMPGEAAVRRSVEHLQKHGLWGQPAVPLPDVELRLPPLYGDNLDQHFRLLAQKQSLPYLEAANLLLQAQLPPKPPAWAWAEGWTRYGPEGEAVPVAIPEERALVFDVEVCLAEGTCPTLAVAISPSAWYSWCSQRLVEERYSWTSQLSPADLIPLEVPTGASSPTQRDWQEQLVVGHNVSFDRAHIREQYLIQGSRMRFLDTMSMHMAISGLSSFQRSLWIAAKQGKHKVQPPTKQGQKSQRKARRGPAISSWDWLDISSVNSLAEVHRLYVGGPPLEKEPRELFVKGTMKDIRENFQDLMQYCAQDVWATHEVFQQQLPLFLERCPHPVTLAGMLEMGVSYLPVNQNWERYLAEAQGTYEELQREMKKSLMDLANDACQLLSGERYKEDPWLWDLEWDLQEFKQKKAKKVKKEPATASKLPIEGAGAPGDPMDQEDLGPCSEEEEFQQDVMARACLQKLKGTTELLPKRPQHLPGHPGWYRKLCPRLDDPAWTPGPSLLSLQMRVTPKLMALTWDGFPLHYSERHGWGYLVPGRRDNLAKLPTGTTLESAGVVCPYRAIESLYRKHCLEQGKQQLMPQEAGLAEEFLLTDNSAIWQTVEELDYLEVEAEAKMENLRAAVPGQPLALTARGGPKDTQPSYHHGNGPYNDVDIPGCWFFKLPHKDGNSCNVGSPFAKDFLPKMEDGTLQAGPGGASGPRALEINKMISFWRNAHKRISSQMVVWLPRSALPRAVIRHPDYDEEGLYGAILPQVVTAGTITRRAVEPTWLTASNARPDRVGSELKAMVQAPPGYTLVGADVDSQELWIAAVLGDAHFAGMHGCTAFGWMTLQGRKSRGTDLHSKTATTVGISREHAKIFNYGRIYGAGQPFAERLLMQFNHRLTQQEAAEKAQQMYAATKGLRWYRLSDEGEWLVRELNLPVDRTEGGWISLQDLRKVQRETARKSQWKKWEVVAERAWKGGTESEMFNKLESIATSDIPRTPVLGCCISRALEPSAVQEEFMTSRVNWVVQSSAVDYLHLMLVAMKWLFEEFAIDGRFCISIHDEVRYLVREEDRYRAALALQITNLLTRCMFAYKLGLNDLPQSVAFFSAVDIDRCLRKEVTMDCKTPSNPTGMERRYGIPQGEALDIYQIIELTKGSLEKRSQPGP
The data set can be described thus: biochemical.

Data set [1] has as its system BVDV. It is filed as cell-based, bovine viral diarrhea virus.
Another data set relates to YFV. In kind it is cell-based, yellow fever virus. The conditions noted are these: Tables 30b, 30k-30o.
For the next data set, the system named is DENV 2. The data set can be described thus: microbe, parasite or virus in culture. It is filed as cell-based, dengue virus. The conditions noted are these: read-out: DENV 2.
A further data set deals with WNV. The data set can be described thus: microbe, parasite or virus in culture. In kind it is cell-based, West Nile virus. The settings on record: read-out: WNV.
The next data set deals with CVB-2. The data set is described as follows: organism not typed. In kind it is cell-based, Coxsackie B-2 virus. The settings on record: read-out: CVB-2.
A further data set relates to Sb-1. The data set is described as follows: organism not typed. The conditions noted are these: read-out: Sb-1. It is filed as cell-based, Sabin type 1 poliomyelitis virus.
A further data set deals with REO-1. The data set can be described thus: microbe, parasite or virus in culture. It is filed as cell-based, double-stranded RNA Reovirus. The conditions noted are these: read-out: REO.
Data set [2] deals with BVDV. The data set is described as follows: Exploratory cell culture studies of mUrd, antiviral efficacy against BVDV. It is filed as cell-based, bovine viral diarrhea virus. The settings on record: less potent than mCyd.
Data set [3] concerns wide spectrum of other viruses. The data set is described as follows: Exploratory cell culture studies of mUrd, other viruses. In kind it is cell-based.
The subject of data set [4] is variety of cytotoxicity tests. The data set can be described thus: Exploratory cytotoxicity tests of mUrd (bone marrow, mitochondrial function, incorporation into nucleic acid). It is filed as cell-based. The settings on record: high concentrations.
In data set [5] the test system is MT-4 human T-lymphocyte cells.
The nature of data set [6]: Exposure of chimpanzees to mCyd, serum HPLC. The settings on record: after val-mCyd; lower limit of quantification 0.4 μM (100 ng/mL).
The subject of data set [7] is HepG2 cells. The conditions noted are these: 10 μM; cell type not stated; cited from earlier work.
Another data set has as its system HCV. The conditions noted are these: ribavirin alone; cited from earlier work.
For data set [8], the system named is HepG2 human hepatoma cell line. The data set can be described thus: Cytotoxicity (cell proliferation) assay, HepG2. The conditions noted are these: rapid cell division; listed as RBV.
The test system of data set [9] is HepG2 cells. The data set is described as follows: Incorporation of drug into cellular RNA and DNA.
The subject of data set [10] is BVDV. In kind it is cell-based, bovine viral diarrhea virus. This is another data set of the same source.
Data set [11] relates to BVDV (strain I-N-dIns), noncytopathic. It is filed as cell-based, bovine viral diarrhea virus. The settings on record: titrated from 0 to 2,000 IU per ml.
The test system of data set [12] is BVDV New York-1 (NY-1) strain. The data set is described as follows: MDBK cells persistently infected with BVDV strain New York-1, virus titer. It is filed as cell-based, bovine viral diarrhea virus. The settings on record: 200 IU/ml alone.
Another data set has as its system S405T mutant BVDV. In kind it is cell-based, bovine viral diarrhea virus. The conditions noted are these: more sensitive.

What is called IC50 is the concentration needed to halve the response being measured. A higher IC50 goes with weaker potency in that assay. What is called CC50 is the concentration at which the toxic effect on the cells reaches its halfway point. A lower CC50 goes with harm at low concentration.

Like-named read-outs stand apart in the source and are kept apart here. Marks after values point to notes of the source that are not given here. Starred links: 1 amine or outer side, 2 acyl side, 3 side chain; linkers in the order of their positions; H or OH if unused. Positions of bridges follow the written chain, without caps; N, C: chain ends. Non-standard residues stand in square brackets, D forms with d. Residues, ends and D or L forms follow the SMILES beside them. Chains are numbered I, II in the order given. Actinocin(9to1) = Cc1c2oc3c(C)ccc(C(=O)[*:1])c3nc-2c(C(=O)[*:2])c(N)c1=O; NMeV = CN[C@H](C(=O)O)C(C)C; Sar = CNCC(=O)O

human DNA polymerase α, sequence (P09884 whole entry): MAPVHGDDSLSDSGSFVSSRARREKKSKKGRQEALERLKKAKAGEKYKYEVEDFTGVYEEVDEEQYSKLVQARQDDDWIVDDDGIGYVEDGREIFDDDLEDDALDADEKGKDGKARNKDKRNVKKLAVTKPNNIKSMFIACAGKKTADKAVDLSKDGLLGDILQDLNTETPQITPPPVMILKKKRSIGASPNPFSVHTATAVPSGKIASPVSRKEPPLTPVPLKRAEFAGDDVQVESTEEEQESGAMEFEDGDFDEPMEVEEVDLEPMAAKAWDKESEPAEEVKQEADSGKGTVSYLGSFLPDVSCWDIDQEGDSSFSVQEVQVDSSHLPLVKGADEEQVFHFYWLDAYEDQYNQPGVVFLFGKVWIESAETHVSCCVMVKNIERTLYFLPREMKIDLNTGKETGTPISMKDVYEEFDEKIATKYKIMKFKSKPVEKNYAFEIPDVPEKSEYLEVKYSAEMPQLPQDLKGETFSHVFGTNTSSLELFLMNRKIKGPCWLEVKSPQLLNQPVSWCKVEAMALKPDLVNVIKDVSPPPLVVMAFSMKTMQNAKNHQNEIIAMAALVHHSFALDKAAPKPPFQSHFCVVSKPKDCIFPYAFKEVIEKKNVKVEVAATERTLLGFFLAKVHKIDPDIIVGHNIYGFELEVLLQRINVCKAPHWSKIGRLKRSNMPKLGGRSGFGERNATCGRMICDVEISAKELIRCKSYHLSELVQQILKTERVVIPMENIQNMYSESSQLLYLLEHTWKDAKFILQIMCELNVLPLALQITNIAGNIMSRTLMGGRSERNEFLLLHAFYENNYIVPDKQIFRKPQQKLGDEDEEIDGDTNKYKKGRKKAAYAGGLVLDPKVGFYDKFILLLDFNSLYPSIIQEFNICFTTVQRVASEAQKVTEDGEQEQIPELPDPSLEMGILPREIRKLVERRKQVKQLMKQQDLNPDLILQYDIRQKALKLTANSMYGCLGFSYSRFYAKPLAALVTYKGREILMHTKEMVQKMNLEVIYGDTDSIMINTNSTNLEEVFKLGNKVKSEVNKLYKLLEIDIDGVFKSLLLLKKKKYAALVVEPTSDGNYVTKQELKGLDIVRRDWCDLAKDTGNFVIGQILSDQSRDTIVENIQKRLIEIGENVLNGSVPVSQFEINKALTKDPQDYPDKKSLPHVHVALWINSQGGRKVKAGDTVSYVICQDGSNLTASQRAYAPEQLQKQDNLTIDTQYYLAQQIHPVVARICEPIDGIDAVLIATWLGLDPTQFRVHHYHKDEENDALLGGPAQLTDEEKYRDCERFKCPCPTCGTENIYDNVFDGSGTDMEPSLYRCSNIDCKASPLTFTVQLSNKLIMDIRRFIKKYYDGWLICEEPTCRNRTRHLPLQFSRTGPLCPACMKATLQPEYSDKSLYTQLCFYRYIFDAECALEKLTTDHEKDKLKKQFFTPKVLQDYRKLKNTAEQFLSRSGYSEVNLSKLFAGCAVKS

As for `Cc1c2oc3c(C)ccc(C(=O)N[C@@H]4C(=O)N[C@H](C(C)C)C(=O)N5CCC[C@H]5C(=O)N(C)CC(=O)N(C)[C@@H](C(C)C)C(=O)O[C@@H]4C)c3nc-2c(C(=O)N[C@@H]2C(=O)N[C@H](C(C)C)C(=O)N3CCC[C@H]3C(=O)N(C)CC(=O)N(C)[C@@H](C(C)C)C(=O)O[C@@H]2C)c(N)c1=O` [Act. D, actinomycin D] (I: T[dV]P[Sar][NMeV] / II: T[dV]P[Sar][NMeV]; ester I:1-I:C, II:1-II:C; linker I:N-II:N via Actinocin(9to1)), the results for the IC50 against human DNA polymerase α, against human DNA polymerase β and against human DNA polymerase γ were 5.8 ± 3.1 µM, 7.9 ± 3 µM and 15.5 ± 4 µM, respectively.

`C[C@@]1(O)[C@H](O)[C@@H](CO)O[C@H]1n1ccc(=O)[nH]c1=O` [Compound N, β-D-2′-C-methyl-uracil]: the EC50 in the data set on BVDV [1] is 18 µM; with YFV, 100 µM; in the data set with DENV 2 it was no less than 100 µM; with WNV, 80 µM; in the data set on CVB-2, greater than 100 µM; with Sb-1, 55 µM. Also, the EC50 in the data set with REO-1 was greater than 100 µM. The “potency against BVDV relative to mCyd” value in the data set on BVDV [2] is “about 10 fold”. For the same compound, in data set [3], the “antiviral activity against a wide spectrum of other viruses” value is “essentially no antiviral activity”. Also, the “result in cytotoxicity tests” value in data set [4] is “negative”. Besides, the CC50 in data set [5] was greater than 100 µM. Moreover, the “mUrd in sera samples” value in [6] is “No mUrd was detected”.

As for `O=c1[nH]c(=O)n([C@@H]2O[C@H](CO)[C@@H](O)[C@@H]2F)cc1I` [FIAU, 1,-2′-deoxy-2′-fluoro-1-β-D-arabinofuranosyl-5-iodo-uracil], the “increase in lactic acid production over control cells” value in the data set with HepG2 cells [7] was 100%.

Regarding `Nc1ccn([C@H]2CC[C@@H](COP(=O)(O)OP(=O)(O)OP(=O)(O)O)O2)c(=O)n1` [ddC-TP], the IC50 against human DNA polymerase α worked out at 78 ± 23.4 µM; against human DNA polymerase β, 4.8 ± 1 µM; at human DNA polymerase γ, 2.7 ± 1 µM.

Turning to `C[C@@]1(O)[C@H](O)[C@@H](COP(=O)(O)OP(=O)(O)OP(=O)(O)O)O[C@H]1n1ccc(N)nc1=O` [mCyd-TP, 2′-C-methyl-cytidine-5′-triphosphate], the results for the IC50 against human DNA polymerase β and on human DNA polymerase γ were no less than 883 µM and no less than 929 µM, respectively.

`NC(=O)c1ncn([C@@H]2O[C@H](CO)[C@@H](O)[C@H]2O)n1` [ribavirin, 1-β-D-ribofuranosyl-1-1,2,4-triazole-3-carboxamide]: in the data set with HCV, the “effect on serum levels of HCV-RNA” value is recorded as “does not lower serum levels of HCV-RNA” and the “patients with serum amino transferase levels reduced to normal” value is given as 40%. In addition, in [8], the midpoint of cytotoxicity, the CC50, lay at 36 µM. Besides, in the data set with HepG2 cells [9] (10 μM [3H] drug, 30 hours), the “Incorporated drug amount, DNA” value is recorded as 0.0120^b pmole/μg DNA and the “Incorporated drug amount, RNA” value is 0.0132^c pmole/μg RNA. The “incorporation into both DNA and RNA, level relative to mCyd” value with HepG2 cells [9] (higher than mCyd) is recorded as 10 fold.

As for interferon alpha 2b, in the data set with BVDV [10], the EC50 is 2.6 IU per ml. Further, the viral reduction with BVDV [10] (even at 1000 IU per ml) was no more than 2 logs. In addition, the “reduction in viral titer” value in [11] is given as 0.1 log. Moreover, in data set [12], the “reduction in virus titer” value is recorded as “approximately 0.1 log10”. Also, in the data set on S405T mutant BVDV, the “sensitivity of the mutant relative to wild-type” value is roughly 40 fold.
